{
  "source": "patent US9011853B2",
  "about": "“B7-H4 fusion proteins and methods of use thereof” (Amplimmune, Inc., priority 2009, dated 2015)",
  "test_system": "serum levels of 58 analytes",
  "test": "Serum biomarker analysis, quantitative immunoassay multi-analyte profiling (Rules-Based Medicine RodentMAP v2.9), AA#80",
  "type": "in vivo, mouse",
  "procedure": "In AA#80, serum samples were collected on Day 27, Day 34, Day 41 and Day 55 via the submandibular vein. Approximately 200 μL of blood per mouse was collected in Microtainer® serum separator tubes. Serum was removed following centrifugation and stored at <−65° C. until analysis.\nSelected serum samples were sent to Rules-Based Medicine (Austin, Tex.) for quantitative immunoassay multi-analyte profiling of serum samples, with the goal of identifying biomarkers that could be used to monitor disease progression and response to B7-H4-Ig treatment. Day 27, Day 34, and Day 41 sera from the three representative mice in the B7-H4-Ig group (tag #3332, 3334, and 3338) and three representative mice in the Synagis® group (tag #3324, 3329, and 3330) were analyzed for levels of 58 analytes using the RodentMAP v2.9 Testing Service.\nData from the Rules-Based Medicine analysis was analyzed using Microsoft Excel and GraphPad Prism software. T-tests were performed to compare the levels of each analyte in the B7-H4-Ig versus Synagis® treated samples. No correction was made for multiple comparisons. Additionally, correlation coefficients were calculated for each analyte versus disease score.",
  "note": "Where “and” joins values, the source holds several entries; their conditions need not be identical. Identical values can stand only once.",
  "data": [
    {"substance": "Synagis®: humanized monoclonal IgG antibody against the F protein of Respiratory Syncytial Virus; used as a human IgG1 isotype control [reference compound]", "values": [
      {"measurement": "serum samples with undetectable GST-α levels", "setting": "all samples (Day 27, 34, 41)", "value": "7/9"},
      {"measurement": "serum samples with TNF-α levels above the limit of detection", "setting": "all samples (Day 27, 34, 41) (FIG. 16)", "value": "5/9"},
      {"measurement": "M-CSF (Macrophage-Colony Stimulating Factor)", "setting": "serum, Day 34, LDD 0.01795, listed as Human LgG1 Control", "value": "6.46 ng/mL and 6.3 ng/mL and 6.09 ng/mL"},
      {"measurement": "MIP-1gamma (Macrophage Inflammatory Protein-1gamma)", "setting": "serum, Day 34, LDD 0.0736, listed as Human LgG1 Control", "value": "42.2 ng/mL and 41 ng/mL and 40.9 ng/mL"},
      {"measurement": "TEMP-1 (Tissue Inhibitor of Metalicproteinase Type-1)", "setting": "serum, Day 34, LDD 0.18, listed as Human LgG1 Control", "value": "1.7 ng/mL and 1.88 ng/mL and 1.31 ng/mL"},
      {"measurement": "IL-5 (Interleukin-5)", "setting": "serum, Day 34, LDD 0.194, listed as Human LgG1 Control", "value": "0.333 ng/mL and 0.474 ng/mL"},
      {"measurement": "MIP-1alpha (Macrophage Inflammatory Protein-1alpha)", "setting": "serum, Day 34, LDD 0.2255, listed as Human LgG1 Control", "value": "3.13 ng/mL and 2.88 ng/mL and 2.93 ng/mL"},
      {"measurement": "MIP-3beta (Macrophage Inflammatory Protein-3beta)", "setting": "serum, Day 34, LDD 0.465, listed as Human LgG1 Control", "value": "2.63 ng/mL and 2.52 ng/mL and 2.67 ng/mL"},
      {"measurement": "Tissue Factor", "setting": "serum, Day 34, LDD 0.5175, listed as Human LgG1 Control", "value": "10.8 ng/mL and 10 ng/mL and 12.5 ng/mL"},
      {"measurement": "MPO (Myeloperoxidase)", "setting": "serum, Day 34, LDD 0.95, listed as Human LgG1 Control", "value": "253 ng/mL and 254 ng/mL"},
      {"measurement": "SGOT (Serum Glutamic-Oxaloacetic Transaminase)", "setting": "serum, Day 34, LDD 1.86, listed as Human LgG1 Control", "value": "75 µg/mL and 140 µg/mL and 81.9 µg/mL"},
      {"measurement": "TPO (Thromboproletin)", "setting": "serum, Day 34, LDD 2.66, listed as Human LgG1 Control", "value": "36.1 ng/mL and 34.2 ng/mL and 39.8 ng/mL"},
      {"measurement": "SAP (Setrum Amtyloid P)", "setting": "serum, Day 34, LDD 5.4, listed as Human LgG1 Control", "value": "38.4 µg/mL and 48.6 µg/mL and 38.3 µg/mL"},
      {"measurement": "MIP-2 (Macrophage Inflammatory Protein-2)", "setting": "serum, Day 34, LDD 7.174, listed as Human LgG1 Control", "value": "27.2 pg/mL and 32.3 pg/mL and 33.6 pg/mL"},
      {"measurement": "MMP-9 (Matrix Metalloproteinase-9)", "setting": "serum, Day 34, LDD 10, listed as Human LgG1 Control", "value": "207 ng/mL and 259 ng/mL and 283 ng/mL"},
      {"measurement": "MCP-1 (Monocyte Chemoattractant Protein-1)", "setting": "serum, Day 34, LDD 16.924, listed as Human LgG1 Control", "value": "99.8 pg/mL and 78.3 pg/mL and 117 pg/mL"},
      {"measurement": "VCAM-1 (Vescular Cell Adhesion Molecule-1)", "setting": "serum, Day 34, LDD 19, listed as Human LgG1 Control", "value": "2290 ng/mL and 2120 ng/mL and 2450 ng/mL"},
      {"measurement": "MDC (Macrophage-Derived Chemokine)", "setting": "serum, Day 34, LDD 21.85, listed as Human LgG1 Control", "value": "1270 pg/mL and 1320 pg/mL and 1130 pg/mL"},
      {"measurement": "Myoglobin", "setting": "serum, Day 34, LDD 24, listed as Human LgG1 Control", "value": "10 ng/mL and 9.69 ng/mL and 12.7 ng/mL"},
      {"measurement": "MCP-3 (Monocyte Chemoattractant Protein-3)", "setting": "serum, Day 34, LDD 31.36, listed as Human LgG1 Control", "value": "188 pg/mL and 180 pg/mL and 193 pg/mL"},
      {"measurement": "VEGF (Vescular Endotheial Cell Growth Factor)", "setting": "serum, Day 34, LDD 38.2, listed as Human LgG1 Control", "value": "92.6 pg/mL and 128 pg/mL and 114 pg/mL"},
      {"measurement": "IP-10 (Inducible Protein-10)", "setting": "serum, Day 34, LDD 40.28, listed as Human LgG1 Control", "value": "68.1 pg/mL and 52 pg/mL and 84.3 pg/mL"},
      {"measurement": "LIF (Leukemia Infabitory Factor)", "setting": "serum, Day 34, LDD 43.6, listed as Human LgG1 Control", "value": "1620 pg/mL and 1430 pg/mL"},
      {"measurement": "MCP-5 (Monocyte Chemoattractant Protein-5)", "setting": "serum, Day 34, LDD 46.38, listed as Human LgG1 Control", "value": "37.5 pg/mL and 46.2 pg/mL and 41 pg/mL"},
      {"measurement": "SCF (Stem Cell Factor)", "setting": "serum, Day 34, LDD 75.17, listed as Human LgG1 Control", "value": "214 pg/mL and 182 pg/mL"},
      {"measurement": "Lymphotactin", "setting": "serum, Day 34, LDD 85.48, listed as Human LgG1 Control", "value": "219 pg/mL and 151 pg/mL and 205 pg/mL"},
      {"measurement": "VWF (Von Willebrand Factor)", "setting": "serum, Day 34, LDD 98.6, listed as Human LgG1 Control", "value": "107 ng/mL and 92.4 ng/mL and 139 ng/mL"},
      {"measurement": "M-CSF (Macrophage-Colony Stimulating Factor)", "setting": "serum, Day 41, LDD 0.01795, listed as Human LgG1 Control", "value": "6.38 ng/mL and 5.22 ng/mL and 6.37 ng/mL"},
      {"measurement": "MIP-1gamma (Macrophage Inflammatory Protein-1gamma)", "setting": "serum, Day 41, LDD 0.0736, listed as Human LgG1 Control", "value": "45.4 ng/mL and 44.8 ng/mL"},
      {"measurement": "TEMP-1 (Tissue Inhibitor of Metalicproteinase Type-1)", "setting": "serum, Day 41, LDD 0.18, listed as Human LgG1 Control", "value": "3.54 ng/mL and 3.21 ng/mL and 4.33 ng/mL"},
      {"measurement": "IL-5 (Interleukin-5)", "setting": "serum, Day 41, LDD 0.194, listed as Human LgG1 Control", "value": "0.616 ng/mL and 0.368 ng/mL and 0.333 ng/mL"},
      {"measurement": "MIP-1alpha (Macrophage Inflammatory Protein-1alpha)", "setting": "serum, Day 41, LDD 0.2255, listed as Human LgG1 Control", "value": "3.03 ng/mL and 3.13 ng/mL and 3.32 ng/mL"},
      {"measurement": "MIP-3beta (Macrophage Inflammatory Protein-3beta)", "setting": "serum, Day 41, LDD 0.465, listed as Human LgG1 Control", "value": "3.27 ng/mL and 2.73 ng/mL and 2.35 ng/mL"},
      {"measurement": "Tissue Factor", "setting": "serum, Day 41, LDD 0.5175, listed as Human LgG1 Control", "value": "10.8 ng/mL and 9.17 ng/mL and 11.7 ng/mL"},
      {"measurement": "MPO (Myeloperoxidase)", "setting": "serum, Day 41, LDD 0.95, listed as Human LgG1 Control", "value": "259 ng/mL and 263 ng/mL and 240 ng/mL"},
      {"measurement": "SGOT (Serum Glutamic-Oxaloacetic Transaminase)", "setting": "serum, Day 41, LDD 1.86, listed as Human LgG1 Control", "value": "84 µg/mL and 93.9 µg/mL and 78.4 µg/mL"},
      {"measurement": "TPO (Thromboproletin)", "setting": "serum, Day 41, LDD 2.66, listed as Human LgG1 Control", "value": "38 ng/mL and 39.8 ng/mL and 32.4 ng/mL"},
      {"measurement": "SAP (Setrum Amtyloid P)", "setting": "serum, Day 41, LDD 5.4, listed as Human LgG1 Control", "value": "49.2 µg/mL and 46.2 µg/mL and 48.8 µg/mL"},
      {"measurement": "MIP-2 (Macrophage Inflammatory Protein-2)", "setting": "serum, Day 41, LDD 7.174, listed as Human LgG1 Control", "value": "33.6 pg/mL and 50.3 pg/mL"},
      {"measurement": "IL-6 (Interleukin-6)", "setting": "serum, Day 41, LDD 13.852, listed as Human LgG1 Control", "value": "74.2 pg/mL and 67.5 pg/mL and 93.7 pg/mL"},
      {"measurement": "MCP-1 (Monocyte Chemoattractant Protein-1)", "setting": "serum, Day 41, LDD 16.924, listed as Human LgG1 Control", "value": "90.2 pg/mL and 129 pg/mL and 105 pg/mL"},
      {"measurement": "VCAM-1 (Vescular Cell Adhesion Molecule-1)", "setting": "serum, Day 41, LDD 19, listed as Human LgG1 Control", "value": "2130 ng/mL and 1890 ng/mL and 1900 ng/mL"}
    ]}
  ]
}
